Article PMC10455244, “Alpha-Mangostin: A Potent Inhibitor of TRPV3 and Pro-Inflammatory Cytokine Secretion in Keratinocytes” (International Journal of Molecular Sciences, 2023)

Assays:
[1] = biological target: T1, TRPV3 (Homo sapiens, UniProt Q8NET8); assay: Fura-2 calcium imaging, carvacrol-induced Ca2+ increase in hTRPV3-overexpressing HEK 293T cells; format: cell-based; parameters: expressed in transfected cells; settings: 300 µM carvacrol; for ∆(F340/F380): control 0.424 ± 0.032
T1 sequence (Q8NET8 1-790): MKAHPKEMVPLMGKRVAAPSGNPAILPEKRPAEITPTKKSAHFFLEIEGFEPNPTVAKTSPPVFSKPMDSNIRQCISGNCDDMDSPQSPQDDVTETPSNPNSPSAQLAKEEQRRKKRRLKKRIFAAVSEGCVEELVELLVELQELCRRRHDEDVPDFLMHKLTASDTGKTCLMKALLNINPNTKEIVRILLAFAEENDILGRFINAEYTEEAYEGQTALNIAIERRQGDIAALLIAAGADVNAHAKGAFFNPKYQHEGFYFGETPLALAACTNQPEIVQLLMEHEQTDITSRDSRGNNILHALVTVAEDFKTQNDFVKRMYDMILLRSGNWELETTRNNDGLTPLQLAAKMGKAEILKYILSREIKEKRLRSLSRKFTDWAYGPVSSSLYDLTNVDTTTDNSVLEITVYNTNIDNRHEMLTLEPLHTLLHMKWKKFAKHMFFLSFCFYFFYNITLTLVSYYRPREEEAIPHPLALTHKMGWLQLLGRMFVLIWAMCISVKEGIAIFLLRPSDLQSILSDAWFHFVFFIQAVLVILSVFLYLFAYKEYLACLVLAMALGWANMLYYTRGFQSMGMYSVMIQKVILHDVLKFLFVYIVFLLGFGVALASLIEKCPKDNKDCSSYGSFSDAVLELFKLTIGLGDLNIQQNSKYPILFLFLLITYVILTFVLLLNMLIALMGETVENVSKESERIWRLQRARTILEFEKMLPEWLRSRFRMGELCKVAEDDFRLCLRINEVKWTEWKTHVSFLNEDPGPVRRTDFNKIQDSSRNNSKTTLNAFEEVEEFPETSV
Experimental: Since the TRPV3-mediated calcium influx is reported to contribute to proper skin function, we investigated whether alpha-mangostin inhibits the intracellular calcium increase induced by carvacrol in hTRPV3-overexpressing HEK 293T cells and keratinocytes. […] In hTRPV3-overexpressing HEK 293T cells, ∆(F340/F380) decreased by approximately 25% and 70% upon exposure to 0.3 µM and 3 µM alpha-mangostin, respectively (Figure 3A, 0.424 ± 0.032 vs. 0.316 ± 0.030 and 0.144 ± 0.006, respectively).
Figure 3 Alpha-mangostin (α-MG) inhibited TRPV3-mediated intracellular calcium increase. Cells were perfused with solutions containing 0.3 µM, 3 µM alpha-mangostin or 10 µM 74a before the addition of 300 µM carvacrol (red, green, and blue lines, respectively). Cells only perfused with normal Tyrode (NT) solution in the presence (black line) or absence (purple line) of 300 µM carvacrol were employed as the control. (A) Alpha-mangostin inhibited TRPV3-mediated intracellular calcium increase in response to carvacrol in TRPV3-overexpressing HEK 293T cells. […] The bar graph on the bottom summarizes the change in the intracellular calcium rise inhibited by alpha-mangostin. (B) Alpha-mangostin inhibited TRPV3-mediated intracellular calcium increase in response to carvacrol in normal human epidermal keratinocytes (NHEK). […] The bar graph on the bottom summarizes the change in the intracellular calcium rise inhibited by alpha-mangostin. Data are presented as means ± SEM. ** p < 0.01, *** p < 0.001, **** p < 0.0001.
Fura-2 AM (Thermo Fisher Scientific) was utilized as a fluorescent indicator to measure calcium signal, as described previously. Fura-2 acetoxymethyl ester (Fura-2 AM) is a widely used fluorescent calcium indicator. After crossing the cell membrane and entering the cytosol, Fura-2 AM is cleaved into its activated form, Fura-2 [49]. After binding to the cytosolic free Ca^2+, the peak excitation of Fura-2 shifts from 380 nm (Ca^2+-free state) to 340 nm (Ca^2+-bound state), while the peak emission remains unchanged at around 510 nm. To measure the cytosolic Ca^2+ level, a sequential excitation of Fura-2 is performed at 340 nm and 380 nm; then, the emission signals resulting from each excitation wavelength are measured and the ratio of these signals is calculated. […] Samples were excited using a wavelength of 380 nm for 20 ms, followed by 340 nm for 100 ms, and fluorescence at 510 nm was recorded. Recorded data were then analyzed using NIS-Element AR Version 5.00.00 (Nikon Instruments, Melville, NY, USA).
The change in the fluorescence ratio when the cells were excited at 340 nm and 380 nm (ΔF340/380) during the measurements was calculated by subtracting the ratio obtained at the beginning of the experiment from each subsequent ratio obtained at different time points. […]

[2] = biological target: T1, TRPV3; assay: Whole-cell patch-clamp, 2-APB-evoked TRPV3 current in normal human epidermal keratinocytes (NHEK); format: cell-based; parameters: host or cells: NHEK; settings: 100 µM 2-APB, −100 mV, read-out: TRPV3 current inhibited to (normalized to maximum 2-APB response)

COc1c(O)cc2oc3cc(O)c(CC=C(C)C)c(O)c3c(=O)c2c1CC=C(C)C [Alpha-mangostin]
Decrease of ∆(F340/F380) ([1]; 0.3 µM): approximately 25% | ∆(F340/F380) ([1]; 0.3 µM): 0.316 ± 0.030 | Decrease of ∆(F340/F380) ([1]; 3 µM): ~70% | ∆(F340/F380) ([1]; 3 µM): 0.144 ± 0.006 | activity at 0.3 µM ([2]; 0.3 µM): 75.1% | activity at 3 µM ([2]; 3 µM): 27%
